# Source: patent US9464064B2, “HCV helicase inhibitors and methods of use thereof” (University of Kansas, priority 2011, dated 2016)
# Molecular target: T1, HCV NS3 helicase NS3h_1b(con1) (Hepatitis C virus genotype 1b, UniProt Q9WMX2)
# T1 construct: truncated C-terminally His-tagged NS3 proteins lacking the N-terminal protease, called NS3h; His-tag (C); made in house
# Experiment: MBHA screen of NCI mechanistic set library at 20 μM (percent inhibition, compound interference)
# Format: biochemical
# Conditions: compounds at 20 μM; for Inh. (%) (Inhibition): calculated from Equation 1
# Method in brief: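 Molecular beacon-based DNA unwinding assay; compounds screened at 20 μM in triplicate, with DMSO-only negative and 500 nM dT20 positive controls. Fluorescence (ex 643/em 670 nm) was read before and 30 min after adding ATP to 1 mM. Percent inhibition came from the change relative to DMSO controls; interference from pre-ATP fluorescence versus DMSO controls.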
# [1] = MBHA with DNA substrate, assay interference calculated with Equation 2
# [2] = assay interference calculated with Equation 2 (fluorescence vs DMSO-only controls before ATP)
# T1 sequence (Q9WMX2 1192-1657): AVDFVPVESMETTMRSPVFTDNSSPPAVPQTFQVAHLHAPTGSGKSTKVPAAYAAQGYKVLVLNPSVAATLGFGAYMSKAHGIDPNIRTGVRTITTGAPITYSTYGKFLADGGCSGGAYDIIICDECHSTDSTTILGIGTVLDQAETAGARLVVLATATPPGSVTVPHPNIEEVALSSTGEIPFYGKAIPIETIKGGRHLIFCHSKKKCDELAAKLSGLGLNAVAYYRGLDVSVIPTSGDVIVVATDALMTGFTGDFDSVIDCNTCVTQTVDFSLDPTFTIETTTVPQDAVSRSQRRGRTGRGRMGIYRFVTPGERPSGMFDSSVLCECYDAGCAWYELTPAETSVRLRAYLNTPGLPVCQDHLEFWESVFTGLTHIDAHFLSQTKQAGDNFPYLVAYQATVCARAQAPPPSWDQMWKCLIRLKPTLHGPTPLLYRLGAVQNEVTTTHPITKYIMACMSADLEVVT
Compound,Int.* (Ratio) (Interference) [1],Inh. (%) (Inhibition) (MBHA with DNA substrate),Inh. (%) (Inhibition) (MBHA with a DNA substrate),Int.* (Ratio) (Interference) [2]
Clc1ccccc1C(c1ccccc1)(c1ccccc1)n1ccnc1 [Compound 257473],1.08 Ratio,−8.4%,–,–
COc1ccc2c(NCCCCCCNc3c4ccccc4nc4cc(OC)ccc34)c3ccccc3nc2c1 [Compound 260610],–,–,10.7%,0.27 Ratio
COc1ccc(/C=C2\N=C(c3ccccc3)OC2=O)c(OCc2ccccc2)c1 [Compound 262665],–,–,−3.4%,0.95 Ratio
C[n+]1ccc(-c2cc[n+](C)cc2)cc1.[Cl-].[Cl-] [Compound 263500],1.18 Ratio,−8.7%,–,–
COC1C(C)OC(OC2CC(C)(O)Cc3cc4c(c(O)c32)C(=O)c2c(O)cc3c(c2C4=O)OC2OC3(C)C(O)C(N(C)C)C2O)C(OC)C1(C)OC (stereo not shown) [Compound 265450],0.54 Ratio,38.9%,–,–
CCCCCCCCCCSCC(CO)NC(=O)/C=C/c1c(C)[nH]c(=O)[nH]c1=O (stereo not shown) [Compound 265473],–,–,11.0%,0.96 Ratio
O=C1N[C@@H]2C(=C[C@H](O)[C@@H](O)[C@H]2O)c2cc3c(c(O)c21)OCO3 [Compound 266535],–,–,−5.9%,0.87 Ratio
CC(=O)O[C@@H]1C[C@H]2O[C@@H]3C=C(C)CC[C@]3(C)[C@]1(C)[C@]21CO1 [Compound 267033],1.04 Ratio,6.7%,–,–
COc1ccc(S(=O)(=O)N/N=C/C(=O)O)cc1 [Compound 267213],1.05 Ratio,2.9%,–,–
CC[C@@]1(O)C[C@H](O[C@H]2C[C@H](N(C)C)[C@H](O)[C@H](C)O2)c2c(cc3c(c2O)C(=O)c2c(O)ccc(O)c2C3=O)[C@H]1C(=O)OC [Compound 267229],0.49 Ratio,31.5%,–,–
C=C(C)C(=O)OC1CCC2(C)C(CCC3C2CCC2(C)C(c4ccc(=O)oc4)CC4OC432)C1 (stereo not shown) [Compound 267712],–,–,−22.8%,1.09 Ratio
COc1cccc2c1C(=O)c1c(O)c3c(c(O)c1C2=O)C[C@@](O)(C(C)=O)C[C@@H]3O[C@H]1C[C@H](N(Cc2ccccc2)Cc2ccccc2)[C@H](O)[C@H](C)O1.Cl [Compound 268242],0.88 Ratio,30.6%,–,–
CC[n+]1c(-c2ccccc2)c2cc(N)ccc2c2ccc(N)cc21.[Br-] [Compound 268986],0.81 Ratio,36.0%,–,–
CC1=C[C@H]2O[C@@H]3[C@H](O)[C@@H](O)[C@@](C)([C@@]2(CO)CC1)[C@]31CO1 [Compound 269142],–,–,−19.6%,1.07 Ratio

# More lines, now with the values ahead:
Int.* (Ratio) (Interference) [1],Inh. (%) (Inhibition) (MBHA with DNA substrate),Inh. (%) (Inhibition) (MBHA with a DNA substrate),Int.* (Ratio) (Interference) [2],Compound
0.64 Ratio,46.4%,–,–,COc1cccc2c1C(=O)c1c(O)c3c(c(O)c1C2=O)C[C@@](O)(C(C)=O)C[C@@H]3OC1CC(N(C)C)C(O)C(C)O1.Cl (stereo partly shown) [Compound 258812]
–,–,9.6%,0.96 Ratio,Nc1cc2[nH]cnc2c(=O)[nH]1 [Compound 261726]
–,–,−43.3%,1.28 Ratio,NC1=NCN([C@@H]2O[C@H](CO)[C@@H](O)[C@H]2O)C(=O)N1 [Compound 264880]
–,–,8.9%,0.82 Ratio,CC[C@@]1(O)C[C@H](O[C@H]2C[C@H](N(C)C)[C@H](O[C@H]3C[C@H](O)[C@H](O[C@H]4C[C@H](O)[C@H](O)[C@H](C)O4)[C@H](C)O3)[C@H](C)O2)c2c(cc3c(c2O)C(=O)c2c(O)ccc(O)c2C3=O)[C@H]1C(=O)OC [Compound 265211]
1.00 Ratio,−9.8%,–,–,NC1CCCCC1N.[Cl-].[Cl-].[Pt+2] (stereo not shown) [Compound 265459]
1.01 Ratio,−14.4%,–,–,CC1OC(CC(=O)O)CC2=C1C(=O)c1c(O)cccc1C2=O (stereo not shown) [Compound 267461]
–,–,−24.0%,1.04 Ratio,CCNC(=O)OCc1c(COC(=O)NCC)c(-c2ccc(Cl)c(Cl)c2)n2c1CCC2 [Compound 267700]
0.96 Ratio,0.2%,–,–,CC(C)CCCCCCCCCCCCC(=O)NCC(=O)NC1C(C)OC(Nc2ncnc3nc[nH]c23)C(O)C1O (stereo not shown) [Compound 268251]
0.89 Ratio,15.0%,–,–,COC(C(=O)C(O)C(C)O)C1Cc2cc3cc(OC4CC(OC5CC(O)C(O)C(C)O5)C(O)C(C)O4)c(C)c(O)c3c(O)c2C(=O)C1OC1CC(OC2CC(OC3CC(O)C(OC)C(C)O3)C(O)C(C)O2)C(O)C(C)O1 (stereo not shown) [Compound 269146]
